The values that follow come from ChEMBL document CHEMBL5465560, “Selectivity Literature for EUbOPEN Chemogenomic Library” (2024).

For assay [1], the target named is STE20/SPS1-related proline-alanine-rich protein kinase (Homo sapiens) (UniProt Q9UEW8). Particulars: at 10 µM.
In assay [2] the target is Casein kinase I isoform delta (Homo sapiens, UniProt P48730). Nature of the assay: Selectivity interaction (Kinase panel (DSF assay)) EUB0001558a CSNK1D. On the technique in general: In DSF a fluorescence change marks the thermal transition of the protein.
In assay [3] the target is T1, Serine/threonine-protein kinase 3 (Homo sapiens) (UniProt Q13188).
T1 sequence (whole entry): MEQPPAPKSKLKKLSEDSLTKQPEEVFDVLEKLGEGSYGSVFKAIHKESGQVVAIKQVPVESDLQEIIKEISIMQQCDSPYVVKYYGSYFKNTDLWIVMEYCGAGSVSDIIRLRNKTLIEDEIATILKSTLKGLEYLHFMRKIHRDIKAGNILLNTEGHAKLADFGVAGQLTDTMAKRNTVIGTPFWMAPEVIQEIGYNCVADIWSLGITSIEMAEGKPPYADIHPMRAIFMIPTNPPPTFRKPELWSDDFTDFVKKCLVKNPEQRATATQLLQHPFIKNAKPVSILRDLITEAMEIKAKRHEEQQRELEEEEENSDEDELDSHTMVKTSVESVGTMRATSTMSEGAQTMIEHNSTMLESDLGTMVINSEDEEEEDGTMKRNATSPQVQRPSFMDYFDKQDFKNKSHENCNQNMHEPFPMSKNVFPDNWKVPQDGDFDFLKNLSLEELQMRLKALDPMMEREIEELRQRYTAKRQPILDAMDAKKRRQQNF
Nature of the assay: Selectivity interaction (Ambit KINOMEscan and KiNATiv profiling in Jurkat cells) EUB0000090b STK3. It counts as cell-based. Particulars: at 1 µM.

Assay [4] deals with T2, cGMP-dependent protein kinase 2 (Homo sapiens) (UniProt Q13237).
T2 sequence (whole entry): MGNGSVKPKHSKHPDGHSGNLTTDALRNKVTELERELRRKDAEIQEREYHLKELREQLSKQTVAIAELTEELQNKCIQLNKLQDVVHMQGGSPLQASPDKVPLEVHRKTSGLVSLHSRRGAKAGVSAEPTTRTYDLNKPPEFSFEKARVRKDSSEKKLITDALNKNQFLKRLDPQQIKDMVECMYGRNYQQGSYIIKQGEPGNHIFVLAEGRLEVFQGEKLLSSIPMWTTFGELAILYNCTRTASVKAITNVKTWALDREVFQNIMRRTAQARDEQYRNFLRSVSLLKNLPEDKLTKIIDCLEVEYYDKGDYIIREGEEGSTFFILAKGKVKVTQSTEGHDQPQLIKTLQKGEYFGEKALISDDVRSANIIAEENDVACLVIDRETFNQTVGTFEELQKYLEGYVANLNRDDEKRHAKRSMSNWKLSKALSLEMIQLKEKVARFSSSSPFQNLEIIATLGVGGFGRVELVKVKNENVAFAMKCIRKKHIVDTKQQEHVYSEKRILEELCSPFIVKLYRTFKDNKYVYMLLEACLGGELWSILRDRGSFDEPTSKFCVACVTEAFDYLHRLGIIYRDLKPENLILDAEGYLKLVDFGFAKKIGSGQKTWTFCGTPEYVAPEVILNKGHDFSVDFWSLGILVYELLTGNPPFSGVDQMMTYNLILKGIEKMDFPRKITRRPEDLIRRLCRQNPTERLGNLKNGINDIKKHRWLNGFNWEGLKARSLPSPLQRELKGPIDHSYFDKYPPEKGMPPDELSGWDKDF
Kind of assay: Selectivity interaction (KinomeScan (DiscoverX)) EUB0001079a PRKG2. Particulars: at 1 µM.

Assay [5] deals with AP2-associated protein kinase 1 (Homo sapiens, UniProt Q2M2I8). Kind of assay: Selectivity interaction (KinomeScan (DiscoverX)) EUB0000092b AAK1. The note with it: at 10 µM.
In assay [6] the test system is Epidermal growth factor receptor (Homo sapiens), P00533 [UNDEFINED MUTATION]. Nature of the assay: Selectivity interaction (KinomeScan (DiscoverX)) EUB0000655a EGFR. The note with it: at 10 µM.
Assay [7] relates to Proto-oncogene tyrosine-protein kinase receptor Ret (Homo sapiens), P07949 [V804L]. Nature of the assay: (§1) Selectivity interaction (KinomeScan (DiscoverX)) EUB0000695a RET. The note with it: at 100 nM.
Sequence of Proto-oncogene tyrosine-protein kinase receptor Ret (Homo sapiens), P07949 [V804L] (P07949 whole entry V804L): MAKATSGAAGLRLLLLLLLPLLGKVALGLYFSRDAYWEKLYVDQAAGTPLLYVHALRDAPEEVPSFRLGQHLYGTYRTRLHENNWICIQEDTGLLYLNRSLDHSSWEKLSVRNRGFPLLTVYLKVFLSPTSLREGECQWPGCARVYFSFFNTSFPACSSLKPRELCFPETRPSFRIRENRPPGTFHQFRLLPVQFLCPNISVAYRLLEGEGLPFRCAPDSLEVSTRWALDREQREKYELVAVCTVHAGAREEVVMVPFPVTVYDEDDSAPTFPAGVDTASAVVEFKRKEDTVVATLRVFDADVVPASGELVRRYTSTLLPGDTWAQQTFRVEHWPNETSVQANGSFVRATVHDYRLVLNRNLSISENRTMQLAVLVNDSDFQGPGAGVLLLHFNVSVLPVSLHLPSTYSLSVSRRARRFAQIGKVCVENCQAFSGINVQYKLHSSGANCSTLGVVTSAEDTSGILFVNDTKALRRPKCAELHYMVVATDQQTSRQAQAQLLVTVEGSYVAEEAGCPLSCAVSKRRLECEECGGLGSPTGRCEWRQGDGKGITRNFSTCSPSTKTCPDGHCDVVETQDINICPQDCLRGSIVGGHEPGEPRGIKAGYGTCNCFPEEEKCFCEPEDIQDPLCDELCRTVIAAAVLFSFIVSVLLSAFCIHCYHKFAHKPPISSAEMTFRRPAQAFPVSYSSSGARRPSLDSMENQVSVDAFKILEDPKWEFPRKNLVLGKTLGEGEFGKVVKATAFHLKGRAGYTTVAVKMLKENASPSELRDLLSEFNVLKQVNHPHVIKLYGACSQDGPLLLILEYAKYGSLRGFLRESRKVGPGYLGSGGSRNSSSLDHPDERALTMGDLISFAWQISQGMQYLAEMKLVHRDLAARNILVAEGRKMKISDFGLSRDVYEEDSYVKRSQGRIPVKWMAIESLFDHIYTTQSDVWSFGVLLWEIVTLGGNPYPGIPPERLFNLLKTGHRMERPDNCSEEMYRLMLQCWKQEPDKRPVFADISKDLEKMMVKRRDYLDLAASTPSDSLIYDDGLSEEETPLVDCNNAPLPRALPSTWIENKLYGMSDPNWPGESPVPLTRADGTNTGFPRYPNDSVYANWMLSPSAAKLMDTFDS
The target of assay [8] is Proto-oncogene tyrosine-protein kinase receptor Ret (Homo sapiens, UniProt P07949). The assay is described as §1. Particulars: at 100 nM.
The test system of assay [9] is Proto-oncogene tyrosine-protein kinase receptor Ret (Homo sapiens), P07949 [V804M]. Described as §1. The note with it: at 100 nM.
Sequence of Proto-oncogene tyrosine-protein kinase receptor Ret (Homo sapiens), P07949 [V804M] (P07949 whole entry V804M): as the sequence (P07949 whole entry V804L) above, with L804M counted along it
Assay [10] concerns Proto-oncogene tyrosine-protein kinase receptor Ret (Homo sapiens), P07949 [M918T]. The description is as §1. Particulars: at 100 nM.
Sequence of Proto-oncogene tyrosine-protein kinase receptor Ret (Homo sapiens), P07949 [M918T] (P07949 whole entry M918T): as the sequence (P07949 whole entry V804L) above, with L804V, M918T counted along it
The target of assay [11] is Cyclin-dependent kinase 5 (Homo sapiens, UniProt Q00535). Kind of assay: Selectivity interaction (ActivX KiNativ screen (kinase selectivity in THP-1 cell lysates)) EUB0000639a CDK5. The note with it: lysate, at 0.04 µM. The format is subcellular.
Sequence of Cyclin-dependent kinase 5 (Q00535 whole entry, looked up): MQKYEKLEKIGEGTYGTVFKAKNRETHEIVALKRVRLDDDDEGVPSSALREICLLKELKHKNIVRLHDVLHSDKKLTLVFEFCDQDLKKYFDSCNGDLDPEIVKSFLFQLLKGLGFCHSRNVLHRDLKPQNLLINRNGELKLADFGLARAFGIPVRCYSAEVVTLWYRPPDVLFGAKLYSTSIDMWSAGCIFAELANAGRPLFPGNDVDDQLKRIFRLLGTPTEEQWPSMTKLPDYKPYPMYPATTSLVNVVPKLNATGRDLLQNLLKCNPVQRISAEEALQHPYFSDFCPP
For assay [12], the target named is Calcium/calmodulin-dependent protein kinase kinase 2 (Homo sapiens) (UniProt Q96RR4). Kind of assay: Selectivity interaction (ActivX KiNativ screen (kinase selectivity in THP-1 cell lysates)) EUB0000639a CAMKK2. It counts as subcellular. The note with it: lysate, at 0.04 µM.
In assay [13] the target is Serine/threonine-protein kinase MARK2 (Homo sapiens) (UniProt Q7KZI7). Nature of the assay: Selectivity interaction (ActivX KiNativ screen (kinase selectivity in THP-1 cell lysates)) EUB0000639a MARK2. It counts as subcellular. The note with it: lysate, at 1 µM.
Assay [14] concerns Tyrosine-protein kinase ABL1 (Homo sapiens), P00519 [T315I]. Nature of the assay: Selectivity interaction (KinomeScan (DiscoverX)) EUB0000229b ABL1. Particulars: at 1 µM.
For assay [15], the target named is T3, Phosphatidylinositol 5-phosphate 4-kinase type-2 gamma (Homo sapiens) (UniProt Q8TBX8).
T3 sequence (whole entry): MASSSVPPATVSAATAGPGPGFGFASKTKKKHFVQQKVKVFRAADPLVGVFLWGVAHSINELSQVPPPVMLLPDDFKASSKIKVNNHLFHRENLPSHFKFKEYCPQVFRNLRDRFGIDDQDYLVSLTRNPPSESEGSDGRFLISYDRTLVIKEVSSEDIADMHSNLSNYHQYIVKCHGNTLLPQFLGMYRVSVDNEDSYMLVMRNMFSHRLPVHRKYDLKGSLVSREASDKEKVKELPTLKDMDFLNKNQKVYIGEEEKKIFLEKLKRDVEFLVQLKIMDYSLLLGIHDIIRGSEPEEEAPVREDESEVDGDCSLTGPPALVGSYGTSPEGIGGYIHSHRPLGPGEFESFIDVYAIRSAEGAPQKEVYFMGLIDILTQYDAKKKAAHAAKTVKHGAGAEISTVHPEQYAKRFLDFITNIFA
Nature of the assay: Selectivity interaction (KinomeScan (DiscoverX)) EUB0000595a PIP4K2C. Particulars: at 10 µM.

Assay [16] deals with G protein-coupled receptor kinase 4 (Homo sapiens) (UniProt P32298). Kind of assay: Selectivity interaction (KinomeScan (DiscoverX)) EUB0000595a GRK4. The note with it: at 10 µM.
Sequence of G protein-coupled receptor kinase 4 (Homo sapiens) (P32298 whole entry, looked up): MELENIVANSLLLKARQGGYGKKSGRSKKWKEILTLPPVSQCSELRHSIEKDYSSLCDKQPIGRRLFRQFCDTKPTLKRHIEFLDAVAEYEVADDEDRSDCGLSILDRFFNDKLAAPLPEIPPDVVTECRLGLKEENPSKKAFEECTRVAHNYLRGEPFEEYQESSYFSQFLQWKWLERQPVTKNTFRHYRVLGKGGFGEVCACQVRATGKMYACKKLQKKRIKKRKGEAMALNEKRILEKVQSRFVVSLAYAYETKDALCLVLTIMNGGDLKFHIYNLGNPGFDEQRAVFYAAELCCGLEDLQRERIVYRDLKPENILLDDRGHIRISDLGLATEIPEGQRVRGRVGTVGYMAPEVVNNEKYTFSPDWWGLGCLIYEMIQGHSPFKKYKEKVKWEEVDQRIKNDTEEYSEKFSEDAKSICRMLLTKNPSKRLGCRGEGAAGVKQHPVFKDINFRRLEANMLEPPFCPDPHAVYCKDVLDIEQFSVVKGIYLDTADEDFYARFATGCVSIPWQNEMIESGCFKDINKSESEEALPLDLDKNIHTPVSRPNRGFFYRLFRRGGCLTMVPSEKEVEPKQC
Assay [17] addresses Ribosomal protein S6 kinase alpha-4 (Homo sapiens) (UniProt O75676). Kind of assay: Selectivity interaction (KinomeScan (DiscoverX)) EUB0000595a RPS6KA4. The note with it: at 10 µM.
In assay [18] the target is Protein kinase C eta type (Homo sapiens) (UniProt P24723). Nature of the assay: Selectivity interaction (KinomeScan (DiscoverX)) EUB0000618a PRKCH. The note with it: at 10 µM.

Sequence of Ribosomal protein S6 kinase alpha-4 (Homo sapiens) (O75676 whole entry, looked up): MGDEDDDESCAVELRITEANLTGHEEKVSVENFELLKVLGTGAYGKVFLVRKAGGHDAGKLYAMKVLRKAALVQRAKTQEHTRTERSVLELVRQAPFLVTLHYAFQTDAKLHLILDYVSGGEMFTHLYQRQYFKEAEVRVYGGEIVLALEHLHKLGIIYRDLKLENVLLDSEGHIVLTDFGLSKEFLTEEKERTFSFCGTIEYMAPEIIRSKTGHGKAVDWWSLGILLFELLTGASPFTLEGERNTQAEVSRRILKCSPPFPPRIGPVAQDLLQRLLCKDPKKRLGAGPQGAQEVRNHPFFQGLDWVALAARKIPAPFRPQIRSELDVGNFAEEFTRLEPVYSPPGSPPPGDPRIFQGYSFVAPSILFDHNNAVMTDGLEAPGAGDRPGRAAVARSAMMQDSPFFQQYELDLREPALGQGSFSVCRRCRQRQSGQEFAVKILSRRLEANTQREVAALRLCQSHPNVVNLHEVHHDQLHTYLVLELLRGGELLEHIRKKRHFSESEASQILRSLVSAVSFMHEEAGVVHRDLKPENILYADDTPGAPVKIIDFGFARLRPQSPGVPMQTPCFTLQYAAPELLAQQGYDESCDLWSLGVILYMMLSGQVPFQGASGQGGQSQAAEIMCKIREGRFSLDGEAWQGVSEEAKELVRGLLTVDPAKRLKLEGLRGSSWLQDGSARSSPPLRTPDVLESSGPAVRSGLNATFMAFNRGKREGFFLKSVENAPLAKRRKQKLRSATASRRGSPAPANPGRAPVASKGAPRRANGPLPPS

With `Cc1cc([C@@H](C)Nc2ccccc2C(=O)O)c2nc(N3CCOCC3)cc(=O)n2c1` [AZD-6482], the % of control in assay [1] amounted to 100%. For the compound `CC(C)(O)[C@H](F)CN1Cc2cc(NC(=O)c3cnn4cccnc34)c(N3CCOCC3)cc2C1=O`, the dTM in assay [2] was found to be 1.9 K.

Regarding `CN(C)C/C=C/C(=O)Nc1ccc(C(=O)N2CCCC(Nc3ncc(Cl)c(-c4c[nH]c5ccccc45)n3)C2)cc1` (stereo not drawn), the % of control in assay [3] was 92%. In [4], `Nc1cnc(N2CCc3cc(S(=O)(=O)Nc4c(F)cc(Cl)cc4F)cc(N4CCCC4=O)c32)nc1` [TP-020n] registered a % of control of 84%. `CCC(=O)N1CCN(c2ccc(-n3c(=O)ccc4cnc5ccc(-c6cnc7ccccc7c6)cc5c43)cc2C(F)(F)F)CC1` registered a % of control in assay [5] of 75%.

For `CN(C)CCOc1ccc(-c2nc(-c3ccncc3)c(-c3ccc4c(c3)CC/C4=N\O)[nH]2)cc1`, in assay [6], the % of control turned out to be 92%.

As to `Cc1cc(F)c(C(=O)Nc2cccc(-c3nncn3C(C)C)n2)cc1-n1cnc(C2CC2)c1`, the % of control came to 100% in [7], 96% in [8], 98% in assay [9] and 100% in [10]. In the case of `CC[C@@H]1[C@H](F)C(=O)N[C@@H]1COc1nccc2cc(C(N)=O)c(OC)cc12` [ZIMLOVISERTIB], the % of inhibition in assay [11] was 8.4%; in assay [12] it was -13%; in [13], 23.8%. `COc1cc(N(C)c2ccnc3ccc(C(F)(F)F)cc23)cc(OC)c1OC`: the % binding in assay [14] is 85%.

In the case of `COCC(=O)NC/C=C/c1ccc2ncnc(Nc3ccc(Oc4ccc(C)nc4)c(C)c3)c2c1` [CP-724714], the % of control in [15] came out at 84%; in assay [16], 100%; in [17], 100%.

In [18], `O[C@H]1CC[C@H](Nc2ncc3nc(Nc4c(F)cc(F)cc4F)n([C@H]4CCOC4)c3n2)CC1` gave a % of control of 96%.
